According to patent publication US8080529B2, “Macrolides with anti-inflammatory activity” (Glaxo Group Limited, priority 2005, dated 2011):
Like-named read-outs stand apart in the source and are kept apart here.

Tests used:
Assay type in all cases: cell-based
TNF-α = assay: Inhibition of TNF-α production by stimulated human peripheral blood leukocytes in vitro; conditions: for inhibition at 10 µM / inhibition at 50 µM: Homo sapiens, Leukocyte, read-out: Percentage of inhibition of TNF-α production
Protocol: (§1) Test substances used in in vitro experiments were dissolved in dimethyl sulfoxide (DMSO) (Kemika, Croatia) at concentrations of 50 mM and 10 mM, and were further diluted to final concentrations of 50 μM and 10 μM in 1 mL Dulbecco's modified Eagle medium (DMEM) supplemented with 1% heat inactivated fetal bovine serum (FBS), 1% L-glutamine, 50 U/ml penicillin, 50 μg/ml streptomycin and 2.5 μg/mL Fungizone (amphotericin B). Media and all media supplements were purchased from Gibco, Australia, except the FBS was purchased from Sigma, USA.
(§2) Peripheral blood leukocytes (PBL) were obtained from venous blood of healthy volunteers by sedimentation on 2% dextran T-500 (Amersham Biosciences, USA) and subsequent centrifugations of leukocyte rich plasma.
(§3) Peripheral blood leukocytes (PBL), isolated as described above, were seeded in a 48-well plate at a concentration of 3 to 5×10^6 cell per well in culture medium consisting of RPMI 1640 medium (Institute of Immunology, Croatia) supplemented with 10% heat-inactivated fetal calf serum (FCS, Biowhittaker, USA), 100 U/ml penicillin (Gibco, Australia), 100 μg/ml streptomycin (Gibco, Australia) and 2 mM L-glutamine (Gibco, Australia), and preincubated with the test compounds for 2 h at 37° C., in an atmosphere of 5% CO2, and 90% humidity. Then, stimuli (Sigma, USA) were added to a final concentration of 2 μg/mL lipopolysaccharide (LPS), 1 μg/mL phorbol 12-myristate 13-acetate (PMA) or 120 μg/mL zymosan. Samples were incubated overnight under conditions described above. At the end of incubation, the supernatants were transferred to eppendorf tubes and centrifuged for 10 min at 1500×g. Concentrations of human TNF-α, IL-1β, IL-6 and IL-8 were determined in cell supernatants by sandwich ELISA, using capture and detection antibodies (R&D Systems, Minneapolis, Minn.) according to the manufacturer's recommendations.
(§4) Inhibition (as percentage) was calculated using the following formula: % inhibition=(1−concentration of cytokines in sample/concentration of cytokines in positive control)×100.
(§5) The positive control refers to LPS-, PMA- or zymosan-stimulated samples that were not preincubated with test compounds.

IL-1α = assay: Inhibition of IL-1 production by stimulated human peripheral blood leukocytes in vitro; conditions: for inhibition at 10 µM / inhibition at 50 µM: Homo sapiens, Leukocyte, read-out: Percentage of inhibition of IL-1α production
IL-6 = assay: Inhibition of IL-6 production by stimulated human peripheral blood leukocytes in vitro; conditions: for inhibition at 10 µM / inhibition at 50 µM: Homo sapiens, Leukocyte, read-out: Percentage of inhibition of IL-6 production
Protocol: as §1, §2, §3, §4, §5

IL-8 = assay: Inhibition of IL-8 production by stimulated human peripheral blood leukocytes in vitro; conditions: for inhibition at 10 µM / inhibition at 50 µM: Homo sapiens, Leukocyte, read-out: Percentage of inhibition of IL-8 production
Protocol: as §1, §2, §3, §4, §5

Hep G2 = assay: Cytotoxicity assay (MTT), Hep G2 cell line; conditions: 24 h
Protocol: (§6) To determine whether the anti-inflammatory activity of the test compounds was due to observed inhibition of cytokine production and inhibition of proliferation in vitro, and was not a consequence of cellular cytotoxicity, measurement of succinate dehydrogenase activity in living cells was performed. Cells were cultured for 24 h in RPM medium as described above at 37° C. the presence of the test compounds at concentrations of 50 μM and 12.5 μM. MTT [3-(4,5-dimethylthiazole-2-yl)-2,5-diphenyl tetrazolium bromide] (Promega, USA), a detection reagent, was then added and the cultures were incubated for 0.5-2 h. The amount of MTT-Formazan produced was determined using a spectrophotometer at 490 nm (Mosmann, J. Immunol. Methods, 1983, 65: 55-63).
(§7) The percentage of inhibition of cell growth was calculated using the following formula: % inhibition of cell growth=[…].

A549 = assay: Cytotoxicity assay (MTT), A549 cell line; conditions: 24 h
Protocol: as §6, §7

`CC[C@H]1OC(=O)[C@H](C)[C@@H](O[C@H]2C[C@@](C)(OC)[C@@H](OC(=O)CCN3CCN(CCOCCO)CC3)[C@H](C)O2)[C@H](C)[C@@H](O[C@@H]2O[C@H](C)C[C@H](N(C)C)[C@H]2O)[C@](C)(OC)C[C@@H](C)C(=O)N[C@H](C)[C@@H](O)[C@]1(C)O` [Example 18] gave an inhibition at 10 µM (TNF-α; 10 μM, LPS-stimulated PBL) of 9%, an inhibition at 10 µM (TNF-α; 10 μM, PMA-stimulated PBL) of 38% and an inhibition at 10 µM (TNF-α; 10 μM, zymosan-stimulated PBL) of 21%. The inhibition at 50 µM (TNF-α; 50 μM, LPS-stimulated PBL) was 12%, the inhibition at 50 µM (TNF-α; 50 μM, PMA-stimulated PBL) was 57% and the inhibition at 50 µM (TNF-α; 50 μM, zymosan-stimulated PBL) was 30%. The inhibition at 10 µM (IL-1α; 10 μM, LPS-stimulated PBL) was 16%, the inhibition at 10 µM (IL-1α; 10 μM, PMA-stimulated PBL) was 34% and the inhibition at 10 µM (IL-1α; 10 μM, zymosan-stimulated PBL) was 51%. For the same molecule, the inhibition at 50 µM (IL-1α; 50 μM, LPS-stimulated PBL) was 45%, the inhibition at 50 µM (IL-1α; 50 μM, PMA-stimulated PBL) was 68% and the inhibition at 50 µM (IL-1α; 50 μM, zymosan-stimulated PBL) was 90%. For the same molecule, the inhibition at 10 µM (IL-6; 10 μM, LPS-stimulated PBL) was 10%, the inhibition at 10 µM (IL-6; 10 μM, PMA-stimulated PBL) was 33% and the inhibition at 10 µM (IL-6; 10 μM, zymosan-stimulated PBL) was 34%. For the same molecule, the inhibition at 50 µM (IL-6; 50 μM, LPS-stimulated PBL) was 23%, the inhibition at 50 µM (IL-6; 50 μM, PMA-stimulated PBL) was 61% and the inhibition at 50 µM (IL-6; 50 μM, zymosan-stimulated PBL) was 63%. For the same molecule, the inhibition at 10 µM (IL-8; 10 μM, LPS-stimulated PBL) was 6%, the inhibition at 10 µM (IL-8; 10 μM, PMA-stimulated PBL) was 7% and the inhibition at 10 µM (IL-8; 10 μM, zymosan-stimulated PBL) was 25%. It also gave an inhibition at 50 µM (IL-8; 50 μM, LPS-stimulated PBL) of 0%, an inhibition at 50 µM (IL-8; 50 μM, PMA-stimulated PBL) of 0% and an inhibition at 50 µM (IL-8; 50 μM, zymosan-stimulated PBL) of 22%. The “Percentage of inhibition of cell growth” value (Hep G2; 12.5 μM) was 5%, the “Percentage of inhibition of cell growth” value (Hep G2; 50 μM) was 3% and the “Percentage of inhibition of cell growth” value (A549; 12.5 μM) was 0%. For the same molecule, the “Percentage of inhibition of cell growth” value (A549; 50 μM) was 0%.

`CC[C@H]1OC(=O)[C@H](C)[C@@H](O[C@H]2C[C@@](C)(OC)[C@@H](OC(=O)CCN3CCN(CCCN4CCCCC4)CC3)[C@H](C)O2)[C@H](C)[C@@H](O[C@@H]2O[C@H](C)C[C@H](N(C)C)[C@H]2O)[C@](C)(OC)C[C@@H](C)C(=O)N[C@H](C)[C@@H](O)[C@]1(C)O` [Example 22] was tested, and the inhibition at 10 µM (TNF-α; 10 μM, LPS-stimulated PBL) was 0%, the inhibition at 10 µM (TNF-α; 10 μM, PMA-stimulated PBL) was 0% and the inhibition at 10 µM (TNF-α; 10 μM, zymosan-stimulated PBL) was 0%. For the same molecule, the inhibition at 50 µM (TNF-α; 50 μM, LPS-stimulated PBL) was 23%, the inhibition at 50 µM (TNF-α; 50 μM, PMA-stimulated PBL) was 55% and the inhibition at 50 µM (TNF-α; 50 μM, zymosan-stimulated PBL) was 35%. It also gave an inhibition at 10 µM (IL-1α; 10 μM, LPS-stimulated PBL) of 5%, an inhibition at 10 µM (IL-1α; 10 μM, PMA-stimulated PBL) of 14% and an inhibition at 10 µM (IL-1α; 10 μM, zymosan-stimulated PBL) of 57%. It also gave an inhibition at 50 µM (IL-1α; 50 μM, LPS-stimulated PBL) of 46%, an inhibition at 50 µM (IL-1α; 50 μM, PMA-stimulated PBL) of 56% and an inhibition at 50 µM (IL-1α; 50 μM, zymosan-stimulated PBL) of 76%. The inhibition at 10 µM (IL-6; 10 μM, LPS-stimulated PBL) was 3%, the inhibition at 10 µM (IL-6; 10 μM, PMA-stimulated PBL) was 16% and the inhibition at 10 µM (IL-6; 10 μM, zymosan-stimulated PBL) was 28%. For the same molecule, the inhibition at 50 µM (IL-6; 50 μM, LPS-stimulated PBL) was 28%, the inhibition at 50 µM (IL-6; 50 μM, PMA-stimulated PBL) was 60% and the inhibition at 50 µM (IL-6; 50 μM, zymosan-stimulated PBL) was 51%. For the same molecule, the inhibition at 10 µM (IL-8; 10 μM, LPS-stimulated PBL) was 0%, the inhibition at 10 µM (IL-8; 10 μM, PMA-stimulated PBL) was 0% and the inhibition at 10 µM (IL-8; 10 μM, zymosan-stimulated PBL) was 10%. For the same molecule, the inhibition at 50 µM (IL-8; 50 μM, LPS-stimulated PBL) was 5%, the inhibition at 50 µM (IL-8; 50 μM, PMA-stimulated PBL) was 15% and the inhibition at 50 µM (IL-8; 50 μM, zymosan-stimulated PBL) was 30%. The “Percentage of inhibition of cell growth” value (Hep G2; 12.5 μM) was 3%, the “Percentage of inhibition of cell growth” value (Hep G2; 50 μM) was 1% and the “Percentage of inhibition of cell growth” value (A549; 12.5 μM) was 5%. For the same molecule, the “Percentage of inhibition of cell growth” value (A549; 50 μM) was 0%.

`CCC1OC(=O)C(C)C(OC2CC(C)(OC)C(OCCCN3CCN(CCN(CC)CC)CC3)C(C)O2)C(C)C(OC2OC(C)CC(N(C)C)C2O)C(C)(O)CC(C)CN(C)C(C)C2OC(=O)OC12C` (centres unmarked) [Example 97, 4″-O-{3-[4-(2-Diethylamino-ethyl)-piperazin-1-yl]-propyl}azithromycin 11,12-cyclic carbonate] was tested, and the “Percentage of inhibition of TNF-α production” value (TNF-α; 10 μM, LPS-stimulated PBL) was 0%, the “Percentage of inhibition of TNF-α production” value (TNF-α; 10 μM, PMA-stimulated PBL) was 31% and the “Percentage of inhibition of TNF-α production” value (TNF-α; 10 μM, zymosan-stimulated PBL) was 43%. The “Percentage of inhibition of TNF-α production” value (TNF-α; 50 μM, LPS-stimulated PBL) was 62%, the “Percentage of inhibition of TNF-α production” value (TNF-α; 50 μM, PMA-stimulated PBL) was 57% and the “Percentage of inhibition of TNF-α production” value (TNF-α; 50 μM, zymosan-stimulated PBL) was 69%. The “Percentage of inhibition of IL-1α production” value (IL-1α; 10 μM, LPS-stimulated PBL) was 0%, the “Percentage of inhibition of IL-1α production” value (IL-1α; 10 μM, PMA-stimulated PBL) was 57% and the “Percentage of inhibition of IL-1α production” value (IL-1α; 10 μM, zymosan-stimulated PBL) was 49%. The “Percentage of inhibition of IL-1α production” value (IL-1α; 50 μM, LPS-stimulated PBL) was 0%, the “Percentage of inhibition of IL-1α production” value (IL-1α; 50 μM, PMA-stimulated PBL) was 79% and the “Percentage of inhibition of IL-1α production” value (IL-1α; 50 μM, zymosan-stimulated PBL) was 34%. The “Percentage of inhibition of IL-6 production” value (IL-6; 10 μM, LPS-stimulated PBL) was 0%, the “Percentage of inhibition of IL-6 production” value (IL-6; 10 μM, PMA-stimulated PBL) was 32% and the “Percentage of inhibition of IL-6 production” value (IL-6; 10 μM, zymosan-stimulated PBL) was 9%. The “Percentage of inhibition of IL-6 production” value (IL-6; 50 μM, LPS-stimulated PBL) was 14%, the “Percentage of inhibition of IL-6 production” value (IL-6; 50 μM, PMA-stimulated PBL) was 51% and the “Percentage of inhibition of IL-6 production” value (IL-6; 50 μM, zymosan-stimulated PBL) was 56%. For the same molecule, the “Percentage of inhibition of IL-8 production” value (IL-8; 10 μM, LPS-stimulated PBL) was 0%, the “Percentage of inhibition of IL-8 production” value (IL-8; 10 μM, PMA-stimulated PBL) was 4% and the “Percentage of inhibition of IL-8 production” value (IL-8; 10 μM, zymosan-stimulated PBL) was 10%. For the same molecule, the “Percentage of inhibition of IL-8 production” value (IL-8; 50 μM, LPS-stimulated PBL) was 23%, the “Percentage of inhibition of IL-8 production” value (IL-8; 50 μM, PMA-stimulated PBL) was 29% and the “Percentage of inhibition of IL-8 production” value (IL-8; 50 μM, zymosan-stimulated PBL) was 34%.
